Several values for one entry are separate records, joined by “and”; a condition that tells them apart may be missing. Equal values may be shown once.
Key:
TSPO = conditions: cited from earlier work
[1] = biological target: T1, 18 kD Translocator protein (TSPO) (Rattus norvegicus, UniProt P16257); assay: Dynamic PET with arterial sampling; VT by 2-TCM and Logan graphical analysis, compared with SUV; assay type: in vivo, Wistar rats; conditions: for VT 2-TCM / VT Logan: n = 3; for VT Logan: t* = 21 min
T1 construct: from tissue; host or cells: brain of living healthy male Wistar rats (in vivo PET)
Procedure: (§1) The study was divided in two parts. In the first part arterial sampling was performed in four rats to allow for quantification of [^11C]PBR28 binding and comparison with the SUV. In the second part four rats and four mice were used to determine the test-retest variability of the SUV, with a 7-day interval between the scans.
(§2) The animals were anesthetized with isoflurane (induction 4–5% mixed with oxygen and maintenance 1.5–2% mixed with air/oxygen (50/50)) at a flow rate of 1 L/min and a cannula was inserted into the tail vein for the injection of [^11C]PBR28. After the cannulation, the rats were positioned into the nanoScan PET/MRI or nanoScan PET/CT (Mediso Ltd., Budapest, Hungary) in a transaxial position with their heads in the centre of the field of view. A bolus injection of [^11C]PBR28 was given via the canula in the tail vein at start of the PET measurement. The injection was followed by a saline flush. An emission scan of 63 minutes was acquired for all animals. The average injected radioactivity was 23 ± 5 MBq for the rats and 9.9 ± 1.6 MBq for the mice. The injected mass was 0.05 ± 0.03 μg (n = 8) in rats and 0.011 ± 0.011 μg (n = 8) in mice.
(§3) The PET data was acquired in list mode and was reconstructed into 25 timeframes (4x10 s, 4x20 s, 4x60 s, 7x180 s, 6x360 s) with MLEM reconstruction (20 iterations). Image data were not corrected for attenuation or scatter. For each animal a T1-weighted MRI scan (Isotropic FSE sequence, TR/TE: 2000/84.1) was made for anatomical reference.
(§4) Arterial blood sampling was performed during the PET scan in the first group of four rats. In addition to the insertion of the cannula in the tail vein, another cannula was inserted into the femoral artery. For the rats, sixteen arterial blood samples of 0.1 ml were taken for measurement of radioactivity in plasma and blood using a gamma counter. Four samples of 0.5 ml blood were taken for radiometabolite analysis at 4, 20, 40 and 60 minutes after injection.
(§5) The reconstructed dynamic PET measurements were manually aligned with the corresponding MRI scans. The MRI and PET scans were then normalized to the rat or mice brain MRI template available in PMOD (PMOD 3.2 Zurich, Switzerland). Eight regions of interest were defined using the available template in PMOD, i.e. the striatum, hippocampus, hypothalamus, midbrain, thalamus, cerebral cortex, brainstem and cerebellum. Time-activity curves were generated for each region of interest. For all animals the regional brain uptake values were expressed as SUV and were calculated for 57–63 minute after injection, i.e. the last time-frame. The time used for calculating the SUV was based on the tissue-to-plasma ratio obtained from the first part of the study. From 15–50 minutes the tissue-to-plasma ratio is declining, and the estimated equilibrium state is reached at 50–60 minutes after injection. However, it can be beneficial for future studies to use a shorter scan time, i.e. to allow for scanning of more animals per batch of [^11C]PBR28 and to improve counting statistics. The SUV was therefore also calculated for the time-frame of 39–45 minute after injection, In both cases the SUV was calculated according to Eq 1, and it was assumed that 1 cm^3 of brain tissue equals 1 g.
(§6) SUV=tissue activity concentration(Bq/cm3)/injected dose(Bq)/body weight(g) (1)
For the first groups, the arterial samples and percentage of metabolites were used to determine the metabolite corrected plasma-input function. Two-tissue compartment modelling (2-TCM) and Logan graphical analysis were used to calculate the volume of distribution (VT), using the metabolite corrected plasma curve as input. For the Logan analysis data was fitted from 21 minutes after injection (t* = 21 min).

[2] = Radiometabolite analysis of plasma by radio-HPLC; assay type: in vivo, Wistar rats
Procedure: as §4
To determine the percentages of radioactivity in plasma that corresponded to unchanged [^11C]PBR28 and its radioactive metabolites, reversed-phase HPLC was used. Plasma obtained after centrifugation of 0.5 ml blood at 2,000 g for 2–4 min was mixed with acetonitrile (0.35 ml) and centrifuged for 4 min. The acetonitrile extraction ratio was 93.5% ± 1.8% at 4 min, 87.8% ± 0.5% at 20 min, 85.2% ± 1.1% at 40 min and 78.9% ± 2.4% at 60 min. The supernatant was mixed with 2 ml of water and analysed using radio-HPLC. The radio-HPLC system used consisted of an interface module (D-7000; Hitachi: Tokyo, Japan), a L-7100 pump (Hitachi), an injector (model 7125, with a 5.0-mL loop; Rheodyne: Cotati, USA) equipped with a μ-Bondapak C18 column (300 x 7.8 mm, […]; Waters: New England, USA), and an ultraviolet absorption detector (L-7400, 254 nm; Hitachi) in series with a 150TR; Packard (housed in a shield of 50 mm thick lead) equipped with a 550 μL flow cell. Acetonitrile (A) and ammonium formate (100 mM) (B) were used as the mobile phase at 6.0 mL/min, according to the following gradient: 0–4 min (A/B), 40:60 → 80:20 v/v; 4.1–6 min(A/B), 80:20 v/v; 8 min (A/B), 40:60 v/v. Peaks for radioactive compounds eluting from the column were integrated and their areas were expressed as a percentage of the sum of the areas of all detected radioactive compounds (decay-corrected to the time of injection on the HPLC).

[3] = Arterial blood and plasma radioactivity (gamma counter); assay type: in vivo, Wistar rats; conditions: rats; for plasma/blood ratio of radioactivity: average
Procedure: as §4

[4] = biological target: T1, 18 kD Translocator protein (TSPO); assay: Small animal PET brain uptake (SUV) and test-retest, rats; assay type: in vivo, Wistar rats; conditions: for ICC of SUV / TRV of SUV: Rats, SUV 57–63 min, 7-day interval
Procedure: as §1, §2, §3, §5, §6
(§7) For the test-retest study the test-retest variability was calculated using Eq 2.
(§8) TRV=|test value−retest value|/(test value+retest value)/2*100 (2)
(§9) Additionally the […] correlation coefficient (ICC) was calculated as an index of the reliability of the test-retest measurement using Eq 3, where MS = mean sum of squares, BS = between-subjects, WS = within-subjects, and df = degrees of freedom. It combines the information of the difference between and within the test and retest scan. The ICC values were interpreted as follows: 0–0.2 indicated slight agreement, 0.3–0.4 indicated fair agreement, 0.5–0.6 indicated moderate agreement, 0.7–0.8 indicated substantial agreement, and >0.8 indicated almost perfect agreement between the test and retest measures.
(§10) ICC=MSBS−MSWS/MSBS+(dfWS*MSWS) (3)

[5] = biological target: T2, 18 kD Translocator protein (TSPO) (Mus musculus, UniProt P50637); assay: Small animal PET brain uptake (SUV) and test-retest, mice; assay type: in vivo, C57BL/6J mice; conditions: for ICC of SUV / TRV of SUV: Mice, SUV 57–63 min, 7-day interval
T2 construct: from tissue; host or cells: brain of living healthy male C57BL/6J mice (in vivo PET)
Procedure: as §1, §2, §3, §5, §6, §7, §8, §9, §10

[6] = rats, eight brain regions, SUV 57–63 min
[7] = rats, 4 minutes after injection

CCC(C)N([11CH3])C(=O)c1cc2ccccc2c(-c2ccccc2Cl)n1 (centres unmarked) [[^11C]PK11195]
non-specific binding (TSPO): high level of non-specific binding

CC(=O)N(Cc1ccccc1O[11CH3])c1ccc(Oc2ccccc2)nc1 [[^11C]PBR28, N-acetyl-N-(2-[^11C]methoxybenzyl)-2-phenoxy-5-pyridinamine]
VT 2-TCM ([1]; Brainstem, rats): 56.7
VT Logan ([1]; Brainstem, rats): 49.7
VT 2-TCM ([1]; Cerebellum, rats): 63.6
VT Logan ([1]; Cerebellum, rats): 54.0
VT 2-TCM ([1]; Cerebral cortex, rats): 45.3
VT Logan ([1]; Cerebral cortex, rats): 41.5
VT 2-TCM ([1]; Hippocampus, rats): 41.1
VT Logan ([1]; Hippocampus, rats): 38.7
VT 2-TCM ([1]; Hypothalamus, rats): 58.3
VT Logan ([1]; Hypothalamus, rats): 51.3
VT 2-TCM ([1]; Midbrain, rats): 40.9
VT Logan ([1]; Midbrain, rats): 36.2
VT 2-TCM ([1]; Striatum, rats): 37.4
VT Logan ([1]; Striatum, rats): 34.5
VT 2-TCM ([1]; Thalamus, rats): 35.8
VT Logan ([1]; Thalamus, rats): 34.2
SUV of sampled rats higher than SUV of non-sampled rats ([1]; data not shown): about 30%
total (whole) brain VT, Logan analysis ([1]; rats, average): 42.9 ± 1.7 and 43.1
total brain VT, 2-TCM ([1]; rats, average): 47.3
correlation (r^2) between average VT (2-TCM) and average SUV [1, 6]: 0.92
correlation (r^2) between average VT (Logan) and average SUV [1, 6]: 0.94
metabolism in rats ([2]; plasma): rapidly metabolized
fraction metabolized [2, 7]: about 60%
parent compound left in plasma [2, 7]: 40.7 ± 9.0%
parent compound left in plasma ([2]; rats, 20 minutes after injection): 8.2 ± 2.6%
parent compound left in plasma ([2]; rats, 40 minutes after injection, n = 1): 3.7%
parent compound left in plasma ([2]; rats, 60 minutes after injection): 2.9 ± 1.5%
plasma/blood ratio of radioactivity ([3]; 20 seconds after injection): 0.2
plasma/blood ratio of radioactivity ([3]; 60 minutes after injection): 1.0
time of peak uptake in blood and plasma after injection ([3]; arterial samples): around 20 seconds
ICC of SUV ([4]; Brainstem): 0.58
TRV of SUV ([4]; Brainstem): 17.7
ICC of SUV ([4]; Cerebellum): 0.72
TRV of SUV ([4]; Cerebellum): 11.5
ICC of SUV ([4]; Cerebral cortex): 0.81
TRV of SUV ([4]; Cerebral cortex): 16.7
ICC of SUV ([4]; Hippocampus): 0.88
TRV of SUV ([4]; Hippocampus): 7.7 ± 3.5 and 7.7
ICC of SUV ([4]; Hypothalamus): 0.59
TRV of SUV ([4]; Hypothalamus): 20.4 ± 15.4 and 20.4
ICC of SUV ([4]; Midbrain): 0.86
TRV of SUV ([4]; Midbrain): 12.3
ICC of SUV ([4]; Striatum): 0.69
TRV of SUV ([4]; Striatum): 13.6
ICC of SUV ([4]; Thalamus): 0.71
TRV of SUV ([4]; Thalamus): 13.7
time of maximum total brain uptake (SUV) after injection ([4]; non-sampled rats, i.v. bolus): around 1 min
ICC of SUV ([5]; Brainstem): 0.31
TRV of SUV ([5]; Brainstem): 13.2
ICC of SUV ([5]; Cerebellum): 0.29
TRV of SUV ([5]; Cerebellum): 13.7
TRV of SUV ([5]; Cerebral cortex): 13.4
ICC of SUV ([5]; Hippocampus): 0.32
TRV of SUV ([5]; Hippocampus): 6.9 ± 4.7 and 6.9
ICC of SUV ([5]; Hypothalamus): 0.01
TRV of SUV ([5]; Hypothalamus): 23.0
ICC of SUV ([5]; Midbrain): 0.02
TRV of SUV ([5]; Midbrain): 15.1
TRV of SUV ([5]; Striatum): 23.6 ± 15.6 and 23.6
ICC of SUV ([5]; Thalamus): 0.71
TRV of SUV ([5]; Thalamus): 7.6
time of maximum total brain uptake (SUV) after injection ([5]; mice, i.v. bolus): around 1 min
affinity for the TSPO (TSPO): high affinity
specific binding compared with [^11C]PK11195 (TSPO): higher specific binding

— paper PMC4440816, “Positron Emission Tomography studies with [^11C]PBR28 in the Healthy Rodent Brain: Validating SUV as an Outcome Measure of Neuroinflammation” (PLoS ONE, 2015)
